This is an account of results in PubChem BioAssay (NCI).

Test systems include TK-10 renal; CCRF-CEM leukemia; A549 NSCLC; LOX IMVI melanoma; OVCAR-4 ovarian; NCI-H226 lung; HCC-2998 colon; RXF 393 renal; MDA-MB-231 breast; MCF7 breast.
Assay in all cases: NCI-60 cell line screen, 48 h

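A five-concentration, 48-hour dose response in 96-well plates underlies each endpoint, interpolated linearly between surrounding concentrations. At the TGI there is no net growth.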

Regarding `CCOC(=O)CC1COc2ccc3c(c21)OCO3` (stereo not drawn), the TGI in the experiment on TK-10 renal, in the experiment with CCRF-CEM leukemia, with A549 NSCLC, with LOX IMVI melanoma, with OVCAR-4 ovarian and with NCI-H226 lung was greater than 100 µM each time. In the experiment on HCC-2998 colon, this molecule registered a TGI greater than 100 µM.
Turning to `CCOC(=O)C1SC(=Nc2ccc(OC)c(OC)c2)N=C1C` (stereo not drawn), the TGI is greater than 100 µM in the experiment with TK-10 renal; greater than 100 µM with RXF 393 renal; 59 µM in the experiment with CCRF-CEM leukemia; greater than 100 µM in the experiment on A549 NSCLC; greater than 100 µM with LOX IMVI melanoma; greater than 100 µM in the experiment on OVCAR-4 ovarian. In addition, the TGI in the experiment with NCI-H226 lung and in the experiment with HCC-2998 colon was greater than 100 µM each time.
In the case of `CC(CC(N)C(=O)O)C(=O)O` (stereo not drawn), the TGI in the experiment with TK-10 renal, in the experiment on RXF 393 renal, in the experiment on CCRF-CEM leukemia, in the experiment on A549 NSCLC, in the experiment with LOX IMVI melanoma and in the experiment with OVCAR-4 ovarian was greater than 100 µM each time. For the same molecule, the TGI in the experiment on NCI-H226 lung and with MDA-MB-231 breast was greater than 100 µM throughout.
As to `CC(C)C(=O)N1Cc2cc(Cl)cc(Cl)c2OC(=O)c2ccccc21`, the TGI in the experiment on TK-10 renal was greater than 100 µM; in the experiment with CCRF-CEM leukemia, 94.7 µM; in the experiment with A549 NSCLC it was greater than 100 µM; with LOX IMVI melanoma, 59 µM; in the experiment with OVCAR-4 ovarian, 74 µM; with NCI-H226 lung it was 58.7 µM. In addition, in the experiment with HCC-2998 colon, the TGI was determined as 60.3 µM.
Regarding `O=C(/C=C\c1cccc2ccccc12)c1ccc(F)cc1`, the TGI in the experiment with TK-10 renal was 37.4 µM; with CCRF-CEM leukemia, 41.8 µM; in the experiment on A549 NSCLC it was 81.2 µM; with OVCAR-4 ovarian, 36.9 µM; in the experiment with NCI-H226 lung, greater than 100 µM; with HCC-2998 colon, 35.8 µM.
`CC1(c2sccc2Cl)CC(c2sccc2Cl)=C(C#N)C(=C(C#N)C#N)N1` (stereo not drawn): the TGI is 48.5 µM in the experiment on MCF7 breast; 31.6 µM in the experiment on TK-10 renal; 42.4 µM in the experiment with RXF 393 renal; greater than 100 µM in the experiment on CCRF-CEM leukemia; 75.6 µM in the experiment with A549 NSCLC; 37.8 µM in the experiment on LOX IMVI melanoma. The figures for the TGI with OVCAR-4 ovarian, in the experiment on HCC-2998 colon and in the experiment on MDA-MB-231 breast were 66.1 µM, 29.4 µM and 42.9 µM, respectively.
`N#CC(N=Nc1ccccc1C(=O)O)C(N)=O` (stereo not drawn): the TGI in the experiment on TK-10 renal, in the experiment with RXF 393 renal, in the experiment on CCRF-CEM leukemia, with A549 NSCLC, in the experiment on OVCAR-4 ovarian and with NCI-H226 lung was greater than 100 µM in each case. For the same molecule, the TGI in the experiment on MDA-MB-231 breast is greater than 100 µM.
With `CC(=O)OCC1OC(n2ccc(=O)[nH]c2=O)C(OC(C)=O)C(OC(C)=O)C1OC(C)=O` (stereo not drawn), the TGI in the experiment on TK-10 renal, in the experiment with RXF 393 renal, in the experiment with CCRF-CEM leukemia, in the experiment with A549 NSCLC, in the experiment on LOX IMVI melanoma and with OVCAR-4 ovarian was greater than 100 µM throughout. The TGI in the experiment with NCI-H226 lung and in the experiment on HCC-2998 colon was greater than 100 µM throughout.
In the case of `COc1ccc(C2=NN(c3ccccc3)C[N+](c3ccc(C)cc3)=N2)cc1`, the TGI in the experiment with TK-10 renal was greater than 100 µM; with RXF 393 renal it was 57.9 µM; in the experiment on CCRF-CEM leukemia, 60.8 µM; in the experiment on A549 NSCLC, greater than 100 µM; with LOX IMVI melanoma, greater than 100 µM; in the experiment with OVCAR-4 ovarian, 43.3 µM. Besides, the TGI in the experiment with NCI-H226 lung and in the experiment with HCC-2998 colon was greater than 100 µM in each case.
Consider `COc1cc(C2C3=C(COC3=O)Oc3cc4c(cc32)OCO4)ccc1O` (stereo not drawn), for which the TGI in the experiment with MCF7 breast, in the experiment with TK-10 renal, in the experiment on RXF 393 renal, with CCRF-CEM leukemia, with A549 NSCLC and in the experiment on LOX IMVI melanoma was greater than 100 µM in each case. The TGI in the experiment on OVCAR-4 ovarian is greater than 75.3 µM; with NCI-H226 lung, greater than 100 µM; in the experiment with HCC-2998 colon, 6.34 µM.
For `COC(=O)C1CCC(=O)N1C(c1cc(OC)c(OC)c(OC)c1)c1cc(OC)c(OC)c(OC)c1` (stereo not drawn), the TGI with MCF7 breast, in the experiment on TK-10 renal, in the experiment on A549 NSCLC, with LOX IMVI melanoma and in the experiment on MDA-MB-231 breast was greater than 100 µM in each case.
On to `O=C(Nc1ccc(Cl)cc1C(F)(F)F)C(=O)C1CCCS1(=O)=O` (stereo not drawn), for which the TGI in the experiment with TK-10 renal, in the experiment on RXF 393 renal, in the experiment with CCRF-CEM leukemia, in the experiment on A549 NSCLC, in the experiment with LOX IMVI melanoma and in the experiment with OVCAR-4 ovarian was greater than 100 µM each time. In addition, the TGI in the experiment on NCI-H226 lung and in the experiment with HCC-2998 colon was greater than 100 µM each time.
As for `CCC(C)C(N)C(=O)NC(CC(N)=O)C(=O)NC(CC(C)C)C(=O)NC(CCCCN)C(=O)NC(C)C(=O)NC(CC(C)C)C(=O)NC(C)C(=O)NC(C)C(=O)NC(CC(C)C)C(=O)NC(C)C(=O)NC(CCCCN)C(=O)NC(CCCCN)C(=O)NC(C(=O)NC(CC(C)C)C(N)=O)C(C)CC` (stereo not drawn), the TGI in the experiment with TK-10 renal turned out to be 27.6 µM; in the experiment with RXF 393 renal, 21.7 µM; with CCRF-CEM leukemia it was 18.6 µM; in the experiment on A549 NSCLC, 24.9 µM; in the experiment on LOX IMVI melanoma, 35.3 µM; in the experiment with OVCAR-4 ovarian, 31.9 µM. The TGI in the experiment on NCI-H226 lung was 29 µM; in the experiment with HCC-2998 colon, greater than 56.3 µM.
As to `O=C(O)/C(Cl)=C(\Cl)C(=O)c1ccccc1`, the TGI with TK-10 renal, with RXF 393 renal, in the experiment with CCRF-CEM leukemia, in the experiment on A549 NSCLC, in the experiment on LOX IMVI melanoma and in the experiment with OVCAR-4 ovarian was greater than 100 µM each time. The TGI with NCI-H226 lung and in the experiment on HCC-2998 colon was greater than 100 µM each time.
On to `CCOP(=O)(OCC)/C(C#N)=C/c1cccn1C(C)C`, for which the TGI in the experiment with TK-10 renal, with RXF 393 renal, with A549 NSCLC, in the experiment with LOX IMVI melanoma, in the experiment with NCI-H226 lung and in the experiment on HCC-2998 colon was greater than 100 µM each time. Besides, in the experiment with MDA-MB-231 breast, the TGI is greater than 100 µM.
On to `CC(=O)OC(CC1(C)C(C)CCC23COC(=O)C2=CCCC31)c1ccoc1` (stereo not drawn), for which the TGI with RXF 393 renal is 27.7 µM; in the experiment with CCRF-CEM leukemia, 80.3 µM; with A549 NSCLC, greater than 100 µM; with LOX IMVI melanoma it was 47.9 µM; in the experiment on OVCAR-4 ovarian it was greater than 100 µM; in the experiment with NCI-H226 lung, 44.1 µM. In the experiment with HCC-2998 colon, this molecule returned a TGI of 57.1 µM.
With `CCOC(=O)C(=O)C=P(c1ccccc1)(c1ccccc1)c1ccccc1`, the TGI in the experiment on TK-10 renal, with RXF 393 renal, with CCRF-CEM leukemia, with A549 NSCLC, with LOX IMVI melanoma and in the experiment on OVCAR-4 ovarian was greater than 100 µM each time. The TGI in the experiment with NCI-H226 lung and in the experiment on HCC-2998 colon was greater than 100 µM each time.
